Data taken from patent US20120130146A1, “CONTINUOUS ADMINISTRATION OF CILENGITIDE IN CANCER TREATMENTS” (Merck Patent GmbH, priority 2009, published 2012).
Where “and” joins values, the source holds several entries; their conditions need not be identical. Equal values may be shown once. Read-outs that look alike come from different tables or passages of the source.

How the values were obtained:
[1] = Continuous infusion study pharmacokinetics (plasma); format: in vivo, human; details: for dose proportionality of steady-state concentration (Css): continuous infusion 1-12 mg/h; for level at 2 h / level at 168 h / level at 170 h / level at 336 h / level at 338 h / level at 504 h / level at 506 h: iv
Procedure: Patients with solid tumors received a continuous infusion of 1 mg/h, 2 mg/h, 4 mg/h, 8 mg/h or 12 mg/h. with a weekly change of infusion bag.
Blood samples were taken on Day 1 (first dose) at pre-dose and 2 h after start of infusion and then weekly just before change of infusion bag and 2 hours thereafter for the first 4 weeks.
The following pharmacokinetic parameters were derived at Merck KGaA. Darmstadt, Germany, by mathematical methods using Kinetica Version 4.1.1.
CL the total body clearance of EMD 121974 from plasma Css plasma concentration at steady state ke elimination rate constant Rate infusion rate t1/2, half life V Volume of distribution
Css, the plasma concentration at steady state, has been estimated by the arithmetic mean of all concentration values from time point 168 h to 506 h per patient.
From Css and t1/2 the PK parameters CL, ke and V were calculated as follows: […]

[2] = system: U251 human glioblastoma cells; test: Rat orthotopic glioblastoma model radiotherapy, Cilengitide scheduling experiments; format: in vivo; details: t-4 and t-8 h groups
Procedure: NIH mu nude rats are anaesthetized, restrained, and injected intracerebrally 1 mm retro orbitally, 3 mm to the right of the bregma and at a depth of 2.5 mm with 5×10E5 U251 human glioblastoma cells suspended in 10 ul of culture medium, using a #2701 Hamilton syringe fitted with a 26 gauge needle, essentially as previously described (Engebraaten et al., 1999). After 14 days, cilengitide (4 mg/kg) is given as an intraperitoneal bolus in PBS, at various time (8 h, 4 h, 2 h, 1 h) prior to a single treatment with single, collimated, dorsal-ventral beam of 6 MV x-rays, so that 95-100% of the central axis dose of 25 Gy hit the tumor volume (Kim et al., 1999). Each of the 7 subsequent days the animals also received an identical i.p. bolus of cilengitide. The animals are maintained under ad libitum food and drink until they become moribund, or are sampled for tissue analysis (in the t-4 and t-8 h groups, where the animals are healthy past 230 days post tumor injection). A Kaplan-Meier survival curve is calculated and plotted (FIG. 1) from the raw data (Table 1). All animals in the RT monotherapy group died by 120 d.

[3] = Rate 12 mg/h, Mean, t1/2 = 4 hours
[4] = human, plasma, 1 mg/h, Rate 1 mg/h, Mean, read-out: EMD 121974 Concentrations, Mean
[5] = human, plasma, 2 mg/h, Rate 2 mg/h, Mean, read-out: EMD 121974 Concentrations, Mean
[6] = human, plasma, 4 mg/h, Rate 4 mg/h, Mean, read-out: EMD 121974 Concentrations, Mean
[7] = human, plasma, 8 mg/h, Rate 8 mg/h, Mean, read-out: EMD 121974 Concentrations, Mean
[8] = human, plasma, 12 mg/h, Rate 12 mg/h, Mean, read-out: EMD 121974 Concentrations, Mean

**Q.** What does the source list for CC(C)[C@H]1C(=O)N[C@@H](CCCN=C(N)N)C(=O)NCC(=O)N[C@@H](CC(=O)O)C(=O)N[C@H](Cc2ccccc2)C(=O)N1C [Cilengitide, cyclo-(Arg-Gly-Asp-DPhe-NMeVal)]?
**A.** EMD 121974 Concentrations ([1]; Rate 12 mg/h, 336 h, individual subjects, listed as EMD 121974): 4280.00 ng/mL and 1250.00 ng/mL and 1790.00 ng/mL; EMD 121974 Concentrations ([1]; Rate 12 mg/h, 338 h, individual subjects, listed as EMD 121974): 1780.00 ng/mL and 1610.00 ng/mL and 1620.00 ng/mL; EMD 121974 Concentrations ([1]; Rate 12 mg/h, 504 h, individual subjects, listed as EMD 121974): 2220.00 ng/mL and 989.00 ng/mL and 2050.00 ng/mL; EMD 121974 Concentrations ([1]; Rate 12 mg/h, 506 h, individual subjects, listed as EMD 121974): 1550.00 ng/mL and 1230.00 ng/mL and 1880.00 ng/mL; CL ([1]; Rate 12 mg/h, CL=Rate/Css, individual subjects, listed as EMD 121974): 7.66 L/h and 6.75 L/h; V, Mean [1, 3]: 39.5 L; ke, Mean [1, 3]: 0.173 h⁻¹; V ([1]; Rate 12 mg/h, V=CL/ke, t1/2 = 4 hours, individual subjects, listed as EMD 121974): 35.4 L and 44.2 L and 39.0 L; ke ([1]; Rate 12 mg/h, for t1/2 = 4 hours, individual subjects): 0.173 h⁻¹; Css ([1]; Rate 12 mg/h, mean of 168 h to 506 h values per patient, individual subjects, listed as EMD 121974): 1956.2 ng/mL and 1566.5 ng/mL and 1776.7 ng/mL; time to reach steady state conditions ([1]; assuming a half-life of 4 hours): ≤ 24 h; dose proportionality of steady-state concentration (Css) ([1]; listed as EMD): increased proportionally to dose; dose proportionality of steady-state concentration (Css) ([1]; listed as EMD 121974): increase proportional to dose; clearance ([1]; human, plasma, intravenous, 1 mg/h, Rate 1 mg/h, Mean, read-out: CL, Mean (converted)): 139 mL/min; clearance ([1]; human, plasma, intravenous, 2 mg/h, Rate 2 mg/h, CL=Rate/Css, individual subjects, read-out: CL (converted)): 115 mL/min; clearance ([1]; human, plasma, intravenous, 2 mg/h, Rate 2 mg/h, Mean, read-out: CL, Mean (converted)): 95.3 mL/min; clearance ([1]; human, plasma, intravenous, 4 mg/h, Rate 4 mg/h, CL=Rate/Css, individual subjects, read-out: CL (converted)): 107 mL/min; clearance ([1]; human, plasma, intravenous, 4 mg/h, Rate 4 mg/h, Mean, read-out: CL, Mean (converted)): 109 mL/min; clearance ([1]; human, plasma, intravenous, 8 mg/h, Rate 8 mg/h, Mean, read-out: CL, Mean (converted)): 112 mL/min; clearance ([1]; human, plasma, intravenous, 12 mg/h, Rate 12 mg/h, CL=Rate/Css, individual subjects, read-out: CL (converted)): 102 mL/min; clearance ([1]; human, plasma, intravenous, 12 mg/h, Rate 12 mg/h, Mean, read-out: CL, Mean (converted)): 114 mL/min; clearance ([1]; human, plasma, intravenous, range of dose-group means, 1-12 mg/h, read-out: mean clearance): 95.3 to 139 mL/min; Vd ([1]; human, plasma, intravenous, range of dose-group means, 1-12 mg/h, t1/2 = 4 hours assumed, read-out: Mean volume of distribution): 33 to 48 L; level at 2 h [1, 4]: 39.1 ng/mL; level at 168 h [1, 4]: 156 ng/mL; level at 170 h [1, 4]: 66.6 ng/mL; level at 336 h ([1]; human, plasma, 1 mg/h, Rate 1 mg/h, 336 h, Mean, read-out: EMD 121974 Concentrations, Mean): 209 ng/mL; level at 338 h ([1]; human, plasma, 1 mg/h, Rate 1 mg/h, 338 h, Mean, read-out: EMD 121974 Concentrations, Mean): 191 ng/mL; level at 504 h ([1]; human, plasma, 1 mg/h, Rate 1 mg/h, 504 h, Mean, read-out: EMD 121974 Concentrations, Mean): 62.1 ng/mL; level at 504 h ([1]; human, plasma, 1 mg/h, Rate 1 mg/h, 504 h, individual subjects, read-out: EMD 121974 Concentrations): 62.1 ng/mL; level at 506 h ([1]; human, plasma, 1 mg/h, Rate 1 mg/h, 506 h, Mean, read-out: EMD 121974 Concentrations, Mean): 109 ng/mL; level at 506 h ([1]; human, plasma, 1 mg/h, Rate 1 mg/h, 506 h, individual subjects, read-out: EMD 121974 Concentrations): 94.4 ng/mL; level at 2 h [1, 5]: 162 ng/mL; level at 168 h [1, 5]: 344 ng/mL; level at 170 h [1, 5]: 280 ng/mL; level at 336 h ([1]; human, plasma, 2 mg/h, Rate 2 mg/h, 336 h, Mean, read-out: EMD 121974 Concentrations, Mean): 495 ng/mL; level at 338 h ([1]; human, plasma, 2 mg/h, Rate 2 mg/h, 338 h, Mean, read-out: EMD 121974 Concentrations, Mean): 360 ng/mL; level at 504 h ([1]; human, plasma, 2 mg/h, Rate 2 mg/h, 504 h, Mean, read-out: EMD 121974 Concentrations, Mean): 376 ng/mL; level at 506 h ([1]; human, plasma, 2 mg/h, Rate 2 mg/h, 506 h, Mean, read-out: EMD 121974 Concentrations, Mean): 337 ng/mL; level at 2 h [1, 6]: 328 ng/mL; level at 168 h [1, 6]: 626 ng/mL; level at 170 h [1, 6]: 516 ng/mL; level at 336 h ([1]; human, plasma, 4 mg/h, Rate 4 mg/h, 336 h, Mean, read-out: EMD 121974 Concentrations, Mean): 726 ng/mL; level at 338 h ([1]; human, plasma, 4 mg/h, Rate 4 mg/h, 338 h, Mean, read-out: EMD 121974 Concentrations, Mean): 559 ng/mL; level at 504 h ([1]; human, plasma, 4 mg/h, Rate 4 mg/h, 504 h, Mean, read-out: EMD 121974 Concentrations, Mean): 665 ng/mL; level at 506 h ([1]; human, plasma, 4 mg/h, Rate 4 mg/h, 506 h, Mean, read-out: EMD 121974 Concentrations, Mean): 681 ng/mL; level at 2 h [1, 7]: 503 ng/mL; level at 168 h [1, 7]: 1460 ng/mL; level at 170 h [1, 7]: 1210 ng/mL; level at 336 h ([1]; human, plasma, 8 mg/h, Rate 8 mg/h, 336 h, Mean, read-out: EMD 121974 Concentrations, Mean): 525 ng/mL; level at 338 h ([1]; human, plasma, 8 mg/h, Rate 8 mg/h, 338 h, Mean, read-out: EMD 121974 Concentrations, Mean): 972 ng/mL; level at 504 h ([1]; human, plasma, 8 mg/h, Rate 8 mg/h, 504 h, Mean, read-out: EMD 121974 Concentrations, Mean): 1630 ng/mL; level at 506 h ([1]; human, plasma, 8 mg/h, Rate 8 mg/h, 506 h, Mean, read-out: EMD 121974 Concentrations, Mean): 1290 ng/mL; level at 2 h [1, 8]: 499 ng/mL; level at 168 h [1, 8]: 1770 ng/mL; level at 170 h [1, 8]: 1410 ng/mL; level at 336 h ([1]; human, plasma, 12 mg/h, Rate 12 mg/h, 336 h, Mean, read-out: EMD 121974 Concentrations, Mean): 2440 ng/mL; level at 338 h ([1]; human, plasma, 12 mg/h, Rate 12 mg/h, 338 h, Mean, read-out: EMD 121974 Concentrations, Mean): 1670 ng/mL; level at 504 h ([1]; human, plasma, 12 mg/h, Rate 12 mg/h, 504 h, Mean, read-out: EMD 121974 Concentrations, Mean): 1750 ng/mL; level at 506 h ([1]; human, plasma, 12 mg/h, Rate 12 mg/h, 506 h, Mean, read-out: EMD 121974 Concentrations, Mean): 1550 ng/mL; animals healthy, days post tumor injection [2]: > 230 days
